Target: T1, PBAL (pantoate β-alanine ligase; Pan synthetase) (Toxoplasma gondii, UniProt S8EZ77)
T1 construct: gene TGME49_265870; native full-length enzyme in live tachyzoites, untagged; about 88 kDa; nuclear; compared with pbal-ko
Experiment: LC-MS isotope labelling of pantothenate in live parasites, RH versus pbal-ko
Assay type: cell-based
Conditions: 0.8 mM pantoate with 0.8 mM 13C3/15N-beta-alanine, medium without Pan, 40 h, intact parasites in HFF

T1 sequence (S8EZ77 entry or part of it): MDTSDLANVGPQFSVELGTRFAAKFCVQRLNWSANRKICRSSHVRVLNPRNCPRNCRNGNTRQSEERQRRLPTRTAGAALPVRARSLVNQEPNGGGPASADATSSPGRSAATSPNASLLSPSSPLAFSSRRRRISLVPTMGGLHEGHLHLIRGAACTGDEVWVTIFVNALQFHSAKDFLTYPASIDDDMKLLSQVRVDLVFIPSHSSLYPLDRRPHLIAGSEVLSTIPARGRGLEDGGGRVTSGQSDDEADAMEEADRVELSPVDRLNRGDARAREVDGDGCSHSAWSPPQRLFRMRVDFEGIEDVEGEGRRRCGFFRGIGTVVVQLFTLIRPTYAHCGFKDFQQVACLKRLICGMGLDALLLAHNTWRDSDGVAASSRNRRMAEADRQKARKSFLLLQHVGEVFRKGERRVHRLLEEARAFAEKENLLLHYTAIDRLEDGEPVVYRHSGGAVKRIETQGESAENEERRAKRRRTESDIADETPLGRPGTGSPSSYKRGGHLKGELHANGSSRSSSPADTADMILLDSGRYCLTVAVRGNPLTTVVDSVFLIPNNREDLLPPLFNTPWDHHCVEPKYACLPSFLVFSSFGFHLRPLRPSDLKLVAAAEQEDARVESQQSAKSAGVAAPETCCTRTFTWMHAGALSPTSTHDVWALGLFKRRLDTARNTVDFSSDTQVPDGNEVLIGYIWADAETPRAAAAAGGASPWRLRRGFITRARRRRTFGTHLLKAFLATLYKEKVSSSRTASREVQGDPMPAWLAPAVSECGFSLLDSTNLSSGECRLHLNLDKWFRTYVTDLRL

Structure (SMILES)	LC-MS isotope labelling of pantothenate in live parasites, RH versus pbal-ko (labelled compound)	LC-MS isotope labelling of pantothenate in live parasites, RH versus pbal-ko
NCCC(=O)O [13C3/15N-β-Ala]	led to the formation of labeled Pan in all strains except pbal-ko	
CC(C)(CO)[C@@H](O)C(=O)O [pantoate]		led to the formation of labeled Pan in all strains except pbal-ko
